# Laboratory results from ChEMBL document CHEMBL4507292 (2021).
# Tests used:
# [1] = molecular target: Sigma intracellular receptor 2 (Homo sapiens, UniProt Q5BJF2); assay: GPCRScan assay: inhibition of Sigma 2; set-up: radioligand conc. used [nm] 5.0, parental cells HEKT
# [2] = test system: Tyrosine-protein kinase ABL1 (Homo sapiens), P00519 [E255K]; conditions: Compound concentration 1000.0 nM
# [3] = test system: Tyrosine-protein kinase ABL1 (Homo sapiens), P00519 [H396P]; conditions: Compound concentration 1000.0 nM
# [4] = test system: Tyrosine-protein kinase ABL1 (Homo sapiens), P00519 [T315I]; conditions: Compound concentration 1000.0 nM
# [5] = molecular target: Activin receptor type-1 (Homo sapiens) (UniProt Q04771); conditions: Compound concentration 1000.0 nM
# [6] = molecular target: Ankyrin repeat and protein kinase domain-containing protein 1 (Homo sapiens) (UniProt Q8NFD2); conditions: Compound concentration 1000.0 nM
# [7] = molecular target: Aurora kinase A (Homo sapiens) (UniProt O14965); conditions: Compound concentration 1000.0 nM
# [8] = molecular target: Cytoplasmic tyrosine-protein kinase BMX (Homo sapiens) (UniProt P51813); conditions: Compound concentration 1000.0 nM
# Sequence of Cytoplasmic tyrosine-protein kinase BMX (Homo sapiens) (P51813 whole entry): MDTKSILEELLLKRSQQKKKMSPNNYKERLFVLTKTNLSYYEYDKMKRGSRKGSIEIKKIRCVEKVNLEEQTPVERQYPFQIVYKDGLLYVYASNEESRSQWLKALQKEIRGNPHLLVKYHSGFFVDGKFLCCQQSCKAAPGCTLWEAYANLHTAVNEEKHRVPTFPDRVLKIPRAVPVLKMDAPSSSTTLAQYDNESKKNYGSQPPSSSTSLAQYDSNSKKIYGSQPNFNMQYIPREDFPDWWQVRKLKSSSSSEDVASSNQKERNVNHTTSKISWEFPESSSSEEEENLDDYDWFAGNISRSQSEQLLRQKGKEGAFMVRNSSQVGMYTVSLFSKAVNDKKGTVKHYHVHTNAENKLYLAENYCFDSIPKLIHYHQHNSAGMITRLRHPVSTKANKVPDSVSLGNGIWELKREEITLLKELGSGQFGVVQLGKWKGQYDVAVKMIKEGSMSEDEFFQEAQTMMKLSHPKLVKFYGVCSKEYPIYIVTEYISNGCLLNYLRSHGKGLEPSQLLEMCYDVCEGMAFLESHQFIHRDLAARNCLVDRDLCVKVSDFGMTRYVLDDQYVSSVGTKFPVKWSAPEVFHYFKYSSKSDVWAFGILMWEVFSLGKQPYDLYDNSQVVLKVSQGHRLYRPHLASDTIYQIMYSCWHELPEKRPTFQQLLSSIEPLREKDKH
# [9] = molecular target: Calcium/calmodulin-dependent protein kinase type II subunit gamma (Homo sapiens) (UniProt Q13555); conditions: Compound concentration 1000.0 nM
# [10] = molecular target: Cyclin-dependent kinase 2 (Homo sapiens) (UniProt P24941); conditions: Compound concentration 1000.0 nM
# [11] = molecular target: Serine/threonine-protein kinase DCLK1 (Homo sapiens) (UniProt O15075); conditions: Compound concentration 1000.0 nM
# [12] = molecular target: Ephrin type-B receptor 3 (Homo sapiens) (UniProt P54753); conditions: Compound concentration 1000.0 nM
# [13] = molecular target: Fibroblast growth factor receptor 3 (Homo sapiens) (UniProt P22607); conditions: Compound concentration 1000.0 nM
# [14] = molecular target: Receptor-type tyrosine-protein kinase FLT3 (Homo sapiens) (UniProt P36888); conditions: Compound concentration 1000.0 nM
# [15] = molecular target: Tyrosine-protein kinase FRK (Homo sapiens) (UniProt P42685); conditions: Compound concentration 1000.0 nM
# [16] = molecular target: Glycogen synthase kinase-3 beta (Homo sapiens) (UniProt P49841); conditions: Compound concentration 1000.0 nM
# [17] = molecular target: Mitogen-activated protein kinase 10 (Homo sapiens) (UniProt P53779); conditions: Compound concentration 1000.0 nM
# [18] = molecular target: Serine/threonine-protein kinase STK11 (Homo sapiens) (UniProt Q15831); conditions: Compound concentration 1000.0 nM
# Sequence of Serine/threonine-protein kinase STK11 (Homo sapiens) (Q15831 whole entry): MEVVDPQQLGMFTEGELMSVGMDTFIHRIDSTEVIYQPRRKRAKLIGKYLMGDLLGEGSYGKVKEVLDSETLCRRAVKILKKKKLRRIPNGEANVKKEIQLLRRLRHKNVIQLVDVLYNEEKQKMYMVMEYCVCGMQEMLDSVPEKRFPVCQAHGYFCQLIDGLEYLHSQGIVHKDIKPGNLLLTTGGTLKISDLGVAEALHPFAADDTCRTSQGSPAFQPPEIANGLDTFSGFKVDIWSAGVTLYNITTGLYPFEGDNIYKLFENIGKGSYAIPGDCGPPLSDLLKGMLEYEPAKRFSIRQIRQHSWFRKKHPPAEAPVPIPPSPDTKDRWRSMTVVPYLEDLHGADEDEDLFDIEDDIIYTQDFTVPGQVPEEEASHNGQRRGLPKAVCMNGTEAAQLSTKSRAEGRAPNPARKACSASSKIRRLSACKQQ
# [19] = molecular target: Mitogen-activated protein kinase kinase kinase 15 (Homo sapiens) (UniProt Q6ZN16); conditions: Compound concentration 1000.0 nM
# [20] = molecular target: MAP kinase-activated protein kinase 2 (Homo sapiens) (UniProt P49137); conditions: Compound concentration 1000.0 nM
# Sequence of MAP kinase-activated protein kinase 2 (Homo sapiens) (P49137 whole entry, looked up): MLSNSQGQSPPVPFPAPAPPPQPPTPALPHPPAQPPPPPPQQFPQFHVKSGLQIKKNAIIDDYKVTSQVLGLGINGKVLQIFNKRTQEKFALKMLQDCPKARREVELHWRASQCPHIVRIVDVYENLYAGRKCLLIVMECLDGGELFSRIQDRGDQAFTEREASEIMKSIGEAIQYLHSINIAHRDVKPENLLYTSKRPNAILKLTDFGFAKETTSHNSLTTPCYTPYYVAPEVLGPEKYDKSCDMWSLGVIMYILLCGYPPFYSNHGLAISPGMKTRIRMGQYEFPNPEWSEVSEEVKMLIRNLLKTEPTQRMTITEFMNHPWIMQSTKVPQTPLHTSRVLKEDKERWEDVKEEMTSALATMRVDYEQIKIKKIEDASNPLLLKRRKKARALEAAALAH
# [21] = molecular target: MAP/microtubule affinity-regulating kinase 4 (Homo sapiens) (UniProt Q96L34); conditions: Compound concentration 1000.0 nM
# [22] = molecular target: Misshapen-like kinase 1 (Homo sapiens) (UniProt Q8N4C8); conditions: Compound concentration 1000.0 nM
# [23] = molecular target: Serine/threonine-protein kinase 24 (Homo sapiens) (UniProt Q9Y6E0); conditions: Compound concentration 1000.0 nM
# [24] = molecular target: Serine/threonine-protein kinase mTOR (Homo sapiens) (UniProt P42345); conditions: Compound concentration 1000.0 nM
# [25] = molecular target: Serine/threonine-protein kinase Nek9 (Homo sapiens) (UniProt Q8TD19); conditions: Compound concentration 1000.0 nM
# [26] = molecular target: cAMP-dependent protein kinase catalytic subunit PRKX (Homo sapiens) (UniProt P51817); conditions: Compound concentration 1000.0 nM
# [27] = molecular target: Ribosomal protein S6 kinase alpha-5 (Homo sapiens) (UniProt O75582); conditions: Compound concentration 1000.0 nM
# [28] = molecular target: Ribosomal protein S6 kinase alpha-3 (Homo sapiens) (UniProt P51812); conditions: Compound concentration 1000.0 nM
# Sequence of Ribosomal protein S6 kinase alpha-3 (Homo sapiens) (P51812 whole entry): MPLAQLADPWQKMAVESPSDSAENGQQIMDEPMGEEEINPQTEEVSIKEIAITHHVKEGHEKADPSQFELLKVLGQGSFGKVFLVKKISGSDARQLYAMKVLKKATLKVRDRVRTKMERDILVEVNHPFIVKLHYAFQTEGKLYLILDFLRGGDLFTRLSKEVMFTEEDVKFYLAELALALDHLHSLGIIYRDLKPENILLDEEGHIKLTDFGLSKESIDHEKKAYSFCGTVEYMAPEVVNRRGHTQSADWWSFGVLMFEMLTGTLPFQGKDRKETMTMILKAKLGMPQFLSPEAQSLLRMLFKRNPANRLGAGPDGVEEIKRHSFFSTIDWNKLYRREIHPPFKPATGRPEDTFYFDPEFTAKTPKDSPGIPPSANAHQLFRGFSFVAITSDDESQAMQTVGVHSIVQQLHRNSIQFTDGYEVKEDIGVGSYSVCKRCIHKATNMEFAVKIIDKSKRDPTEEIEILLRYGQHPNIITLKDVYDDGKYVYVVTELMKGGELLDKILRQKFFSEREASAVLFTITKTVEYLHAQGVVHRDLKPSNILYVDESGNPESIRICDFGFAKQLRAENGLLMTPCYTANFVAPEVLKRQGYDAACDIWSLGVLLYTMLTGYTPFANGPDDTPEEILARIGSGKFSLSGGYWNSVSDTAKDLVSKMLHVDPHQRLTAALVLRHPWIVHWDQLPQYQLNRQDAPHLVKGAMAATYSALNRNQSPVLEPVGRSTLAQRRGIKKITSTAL
# [29] = molecular target: Ribosomal protein S6 kinase alpha-6 (Homo sapiens) (UniProt Q9UK32); conditions: Compound concentration 1000.0 nM
# Sequence of Ribosomal protein S6 kinase alpha-6 (Homo sapiens) (Q9UK32 whole entry): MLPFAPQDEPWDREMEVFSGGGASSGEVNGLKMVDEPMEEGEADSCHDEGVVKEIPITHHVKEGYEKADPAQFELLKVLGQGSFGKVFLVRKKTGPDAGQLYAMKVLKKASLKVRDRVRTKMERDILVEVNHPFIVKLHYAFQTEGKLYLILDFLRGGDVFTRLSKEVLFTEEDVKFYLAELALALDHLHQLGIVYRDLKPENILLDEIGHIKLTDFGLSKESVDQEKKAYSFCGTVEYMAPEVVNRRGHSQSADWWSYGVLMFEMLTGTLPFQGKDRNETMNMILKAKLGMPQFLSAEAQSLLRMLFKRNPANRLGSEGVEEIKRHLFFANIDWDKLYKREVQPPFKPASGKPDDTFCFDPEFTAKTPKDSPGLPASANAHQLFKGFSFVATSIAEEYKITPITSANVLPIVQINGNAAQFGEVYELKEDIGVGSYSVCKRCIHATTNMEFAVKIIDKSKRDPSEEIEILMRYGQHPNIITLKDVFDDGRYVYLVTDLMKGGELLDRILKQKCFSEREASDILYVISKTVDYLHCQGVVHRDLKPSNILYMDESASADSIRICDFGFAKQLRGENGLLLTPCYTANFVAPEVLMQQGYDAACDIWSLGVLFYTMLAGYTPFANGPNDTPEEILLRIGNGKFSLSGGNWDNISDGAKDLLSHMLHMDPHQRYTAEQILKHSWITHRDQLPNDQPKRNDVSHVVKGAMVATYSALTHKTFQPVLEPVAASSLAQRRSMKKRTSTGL
# [30] = molecular target: Serine/threonine-protein kinase Sgk3 (Homo sapiens) (UniProt Q96BR1); conditions: Compound concentration 1000.0 nM
# Sequence of Serine/threonine-protein kinase Sgk3 (Homo sapiens) (Q96BR1 whole entry): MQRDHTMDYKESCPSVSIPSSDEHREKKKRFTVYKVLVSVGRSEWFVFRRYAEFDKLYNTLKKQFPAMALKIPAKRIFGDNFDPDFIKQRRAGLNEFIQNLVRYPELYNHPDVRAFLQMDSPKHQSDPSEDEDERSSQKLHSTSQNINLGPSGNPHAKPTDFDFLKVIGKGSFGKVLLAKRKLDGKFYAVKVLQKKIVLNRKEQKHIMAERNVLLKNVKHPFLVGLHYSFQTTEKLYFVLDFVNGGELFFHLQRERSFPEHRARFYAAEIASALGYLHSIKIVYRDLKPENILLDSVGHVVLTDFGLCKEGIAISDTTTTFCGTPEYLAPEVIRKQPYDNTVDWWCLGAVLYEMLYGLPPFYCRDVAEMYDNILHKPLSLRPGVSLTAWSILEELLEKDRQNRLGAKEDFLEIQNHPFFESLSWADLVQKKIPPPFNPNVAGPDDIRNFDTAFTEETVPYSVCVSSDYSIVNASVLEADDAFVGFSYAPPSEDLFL
# [31] = molecular target: Serine/threonine-protein kinase TAO1 (Homo sapiens) (UniProt Q7L7X3); conditions: Compound concentration 1000.0 nM
# [32] = molecular target: TGF-beta receptor type-2 (Homo sapiens) (UniProt P37173); conditions: Compound concentration 1000.0 nM
# [33] = molecular target: Tyrosine-protein kinase receptor Tie-1 (Homo sapiens) (UniProt P35590); conditions: Compound concentration 1000.0 nM
# [34] = molecular target: Serine/threonine-protein kinase TNNI3K (Homo sapiens) (UniProt Q59H18); conditions: Compound concentration 1000.0 nM
# Sequence of Serine/threonine-protein kinase TNNI3K (Homo sapiens) (Q59H18 whole entry): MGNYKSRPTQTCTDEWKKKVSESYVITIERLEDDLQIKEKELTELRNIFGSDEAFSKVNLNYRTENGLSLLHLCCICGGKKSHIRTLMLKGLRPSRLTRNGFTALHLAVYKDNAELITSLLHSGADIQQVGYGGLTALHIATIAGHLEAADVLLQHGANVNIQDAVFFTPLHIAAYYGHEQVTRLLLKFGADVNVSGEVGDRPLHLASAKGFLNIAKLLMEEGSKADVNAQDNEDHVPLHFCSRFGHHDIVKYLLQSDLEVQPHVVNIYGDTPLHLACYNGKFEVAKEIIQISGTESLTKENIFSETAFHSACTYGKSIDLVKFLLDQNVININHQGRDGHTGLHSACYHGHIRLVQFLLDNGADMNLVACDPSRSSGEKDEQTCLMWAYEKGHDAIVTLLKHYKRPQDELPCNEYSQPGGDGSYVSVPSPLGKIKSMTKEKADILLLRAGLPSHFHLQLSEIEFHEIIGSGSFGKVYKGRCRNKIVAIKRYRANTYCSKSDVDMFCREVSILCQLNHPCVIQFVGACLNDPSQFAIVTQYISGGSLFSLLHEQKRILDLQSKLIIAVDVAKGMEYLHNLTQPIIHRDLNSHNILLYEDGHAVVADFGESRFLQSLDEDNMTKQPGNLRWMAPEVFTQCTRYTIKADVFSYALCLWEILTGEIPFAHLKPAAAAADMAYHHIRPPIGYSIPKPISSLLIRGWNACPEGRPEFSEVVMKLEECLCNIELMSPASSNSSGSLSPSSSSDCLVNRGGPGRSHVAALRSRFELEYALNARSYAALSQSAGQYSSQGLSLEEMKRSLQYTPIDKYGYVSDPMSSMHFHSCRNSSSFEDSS
# [35] = molecular target: Wee1-like protein kinase (Homo sapiens) (UniProt P30291); conditions: Compound concentration 1000.0 nM
# [36] = molecular target: Serine/threonine-protein kinase WNK3 (Homo sapiens) (UniProt Q9BYP7); conditions: Compound concentration 1000.0 nM
# [37] = molecular target: Beta-2 adrenergic receptor (Homo sapiens) (UniProt P07550); conditions: Compound concentration 10.0 uM
# Sequence of Beta-2 adrenergic receptor (Homo sapiens) (P07550 whole entry, looked up): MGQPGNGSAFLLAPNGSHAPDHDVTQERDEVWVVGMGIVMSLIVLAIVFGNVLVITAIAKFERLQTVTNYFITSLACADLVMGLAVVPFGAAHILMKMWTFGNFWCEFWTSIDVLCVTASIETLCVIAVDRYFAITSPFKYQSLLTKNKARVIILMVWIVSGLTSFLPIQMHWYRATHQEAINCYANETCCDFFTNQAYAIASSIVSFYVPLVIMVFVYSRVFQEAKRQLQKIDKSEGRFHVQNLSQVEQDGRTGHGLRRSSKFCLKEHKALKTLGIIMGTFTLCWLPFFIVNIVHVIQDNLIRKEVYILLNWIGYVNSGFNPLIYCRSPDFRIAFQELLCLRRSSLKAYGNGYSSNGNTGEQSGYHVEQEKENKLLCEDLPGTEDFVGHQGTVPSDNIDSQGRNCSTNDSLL
# [38] = molecular target: T1, Muscarinic acetylcholine receptor M5 (Homo sapiens) (UniProt P08912); conditions: Compound concentration 10.0 uM
# T1 sequence (whole entry): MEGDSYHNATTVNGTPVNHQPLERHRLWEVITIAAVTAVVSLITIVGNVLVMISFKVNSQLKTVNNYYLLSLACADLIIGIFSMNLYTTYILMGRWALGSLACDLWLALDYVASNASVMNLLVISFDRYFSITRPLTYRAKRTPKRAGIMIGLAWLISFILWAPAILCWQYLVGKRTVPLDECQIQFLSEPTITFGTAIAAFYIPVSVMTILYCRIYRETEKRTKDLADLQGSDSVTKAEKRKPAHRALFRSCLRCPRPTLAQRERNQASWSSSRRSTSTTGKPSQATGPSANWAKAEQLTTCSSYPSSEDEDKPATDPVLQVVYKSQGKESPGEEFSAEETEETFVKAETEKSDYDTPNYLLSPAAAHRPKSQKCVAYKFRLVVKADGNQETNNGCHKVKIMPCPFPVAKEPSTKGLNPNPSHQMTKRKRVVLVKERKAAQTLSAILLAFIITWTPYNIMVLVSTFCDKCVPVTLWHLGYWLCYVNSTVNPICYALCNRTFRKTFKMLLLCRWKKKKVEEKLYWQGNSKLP
# Sequence of Sigma intracellular receptor 2 (Q5BJF2 whole entry): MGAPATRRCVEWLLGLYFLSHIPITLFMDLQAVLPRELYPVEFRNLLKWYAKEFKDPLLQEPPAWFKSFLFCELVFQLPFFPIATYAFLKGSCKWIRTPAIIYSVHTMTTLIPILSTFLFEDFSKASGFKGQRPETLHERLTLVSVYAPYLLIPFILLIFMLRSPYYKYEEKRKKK
Compound,Ki [1],residual activity [2],residual activity [3],residual activity [4],residual activity [5],residual activity [6],residual activity [7],residual activity [8],residual activity [9],residual activity [10],residual activity [11],residual activity [12],residual activity [13],residual activity [14],residual activity [15],residual activity [16],residual activity [17],residual activity [18],residual activity [19],residual activity [20],other results
Cc1c(C(=O)O)cc(-c2ccc(C3CCNCC3)cc2)c2ccc(-c3ccc(C(F)(F)F)cc3)cc12 [PPTN-NC],1.7 µM,96%,72%,100%,100%,100%,100%,100%,100%,100%,81%,100%,100%,100%,100%,100%,100%,94%,100%,88%,residual activity [21]: 97%; residual activity [22]: 100%; residual activity [23]: 100%; residual activity [24]: 96%; residual activity [25]: 100%; residual activity [26]: 100%; residual activity [27]: 100%; residual activity [28]: 80%; residual activity [29]: 100%; residual activity [30]: 100%; residual activity [31]: 100%; residual activity [32]: 100%; residual activity [33]: 100%; residual activity [34]: 100%; residual activity [35]: 80%; residual activity [36]: 100%; inhibition [37]: 27.8%; inhibition [38]: 10.1%
O=C(O)c1cc(-c2ccc(C3CCNCC3)cc2)c2ccc(-c3ccc(C(F)(F)F)cc3)cc2c1 [PPTN],1.12 µM,87%,62%,100%,100%,100%,100%,100%,100%,100%,84%,100%,100%,100%,100%,100%,100%,100%,99%,51%,residual activity [21]: 100%; residual activity [22]: 98%; residual activity [23]: 100%; residual activity [24]: 90%; residual activity [25]: 100%; residual activity [26]: 100%; residual activity [27]: 100%; residual activity [28]: 80%; residual activity [29]: 100%; residual activity [30]: 100%; residual activity [31]: 100%; residual activity [32]: 100%; residual activity [33]: 100%; residual activity [34]: 100%; residual activity [35]: 98%; residual activity [36]: 100%; inhibition [37]: 38.9%; inhibition [38]: 10.1%
